Assays:
[1] = MMV: MTT Cytotoxicity Assay Day 3 pi, U87-CD4-CCR5 cells, % cell death @ 5mM compound; type: toxicity, cell-based; details: human, u87-cd4-ccr5, 5000 µM
[2] = MMV: MTT Cytotoxicity Assay Day 3 pi, U87-CD4-CXCR4 cells, % cell death @ 5mM compound; type: toxicity, cell-based; details: human, u87-cd4-cxcr4, 5000 µM
[3] = system: Human immunodeficiency virus 1; test: MMV: HIV NL4-3 CXCR4-tropic replication-competent virus, virus & compound washed out Day 1 pi, P24 ELISA Day 7 pi, U87-CD4-CXCR4, % inhibition at 5 mM compound; type: functional; design: dose or concentration left out as unconfirmed; details: Human immunodeficiency virus 1, NL4-3, U87.CD4.CXCR4
[4] = MMV: MTT Cytotoxicity Assay Day 7 pi of Assay #6 (compound washed out Day 1 pi), U87-CD4-CCR5 cells, % cell death @ 5mM compound; type: toxicity, cell-based; details: human, u87-cd4-ccr5, 5000 µM
[5] = MMV: MTT Cytotoxicity Assay Day 7 pi of Assay #7 (compound washed out Day 1 pi), U87-CD4-CXCR4 cells, % cell death @ 5mM compound; type: toxicity, cell-based; details: human, u87-cd4-cxcr4, 5000 µM
[6] = MMV: MTT Cytotoxicity Assay Day 7 pi of Assay #10 (NO washout), U87-CD4-CCR5 cells, % cell death @ 5mM compound; type: toxicity, cell-based; details: human, u87-cd4-ccr5, 5000 µM
[7] = MMV: MTT Cytotoxicity Assay Day 7 pi of Assay #11 (NO washout), U87-CD4-CXCR4 cells, % cell death @ 5mM compound; type: toxicity, cell-based; details: human, u87-cd4-cxcr4, 5000 µM
[8] = system: Human immunodeficiency virus 1; test: MMV: HIV CXCR4-tropic env HxB2 pseudovirus assay produces luciferase signal in lieu of replicating viral particles Day 3 pi, U87-CD4-CXCR4, % inhibition at 5 mM compound; type: functional; design: dose or concentration left out as unconfirmed; details: Human immunodeficiency virus 1, HxB2, U87.CD4.CXCR4, 72 h
[9] = system: Human immunodeficiency virus 1; test: MMV: HIV CXCR4-tropic env NL4-3 pseudovirus assay produces luciferase signal in lieu of replicating viral particles Day 3 pi, U87-CD4-CXCR4, % inhibition at 5 mM compound; type: functional; design: dose or concentration left out as unconfirmed; details: Human immunodeficiency virus 1, NL4-3, U87.CD4.CXCR4, 72 h
[10] = system: Human immunodeficiency virus 1; test: MMV: HIV JRFL CCR5-tropic replication-competent virus, virus & compound washed out Day 1 pi, P24 ELISA Day 7 pi, U87-CD4-CCR5, % inhibition at 5 mM compound; type: functional; design: dose or concentration left out as unconfirmed; details: Human immunodeficiency virus 1, JR-FL

SMILES	% Cell Death [1]	% Cell Death [2]	inhibition [3] [%]	% Cell Death [4]	% Cell Death [5]	% Cell Death [6]	% Cell Death [7]	inhibition [8] [%]	inhibition [9] [%]	inhibition [10] [%]
O=C(Nc1nc(-c2ccccn2)cs1)c1ccccc1Br	-1	28	4	-13	-6	118	85			
COC(=O)c1ccc(C2C3=C(O)CC(c4ccc(F)cc4)CC3=Nc3ccccc3N2C(=O)c2ccccc2)cc1 (stereo unspecified)	-1	33	-1	39	12	18	-29			
C=CCc1c(C)nc2ccccc2c1O	4	36	4	-8	38	109	50			
O=C(Nc1ccccc1O)c1ccc(Oc2cccc(C(=O)Nc3ccccc3O)c2)cc1	43	4	0	17	-12	28	-20			
c1ccc(-c2ccc(-c3nc4ccccc4[nH]3)cc2)cc1	12	6	-1	16	-19	11	70			
O=[N+]([O-])c1ccc(C=NNc2nc3ccccc3[nH]2)cc1	32	6	0	28	-15	38	22			
Cc1cccc(N2C(=O)C3C(C2=O)C2(c4ccccc4)C(=O)C3(c3ccccc3)C(c3ccc4c(c3)OCO4)=C2c2ccc3c(c2)OCO3)c1 (stereo unspecified)	4	35	3	4	-2	0	-20			
O=C(O)C1Cc2c([nH]c3ccccc23)C(c2ccc(Cl)cc2Cl)N1 (stereo unspecified)	10	11	0	15	-34	27	-2			
O=C(CCc1ccco1)NC1CCN(CC2(c3ccc(Cl)cc3)CCC2)CC1	18	38	1	2	24	109	97			
COc1ccc(-c2cc3c(SCC(=O)Nc4cc(C(F)(F)F)ccc4Cl)nccn3n2)cc1	24	41		5	-22	18	13	6		
CCCCCCn1c(=N)n(CC(O)COc2cccc(C)c2)c2ccccc21.Cl (stereo unspecified)	43	17		33	-16	71	50	2		
Cc1ccc(C2CC(C(F)(F)F)n3nc(C(=O)N4CCN(C(c5ccccc5)c5ccccc5)CC4)cc3N2)cc1 (stereo unspecified)	86	64		77	62	75	58	5		
CCc1ccc(Nc2cc(C)nc3nc(C)nn23)cc1	23	46		4	4	50	93	6		
COc1cc(C(=O)Nc2nc3c(cc4c5c(cccc53)CC4)s2)cc(OC)c1OC	105	56		42	68	136	110	0		
CCOc1ccc(Nc2c3ccccc3nc3ccccc23)cc1.Cl	47	1		34	42	43	95	5	2	
CCC1(C)CC(CCNCc2ccccc2O)(c2ccc(C)cc2)CCO1 (stereo unspecified)	-22	14		9	0	27	19	0		
CC(C)(C)CC(C)(C)NCC(O)COc1ccc2c(c1)CCC2.Cl (stereo unspecified)	-4	10		2	-11	-10	7	4	-1	
Cc1ccc(C)c(Cn2c(N3CCC(C(=O)NCc4cccs4)CC3)nc3ccccc32)c1	108	38		57	2	98	47	7		
OC(CNC1CCCCC1)Cn1c2ccc(I)cc2c2cc(I)ccc21 (stereo unspecified)	27	25		3	-9	-2	26	3		3

— ChEMBL document CHEMBL3301472, “MMV Malaria Box HIV and cytotoxicity screening”
